# Source: paper PMC10673995, “Discovery of a novel cardiac-specific myosin modulator using artificial intelligence-based virtual screening” (Nature Communications, 2023)
# “And” between values parts separate entries of the source, which are not always exact repeats. Identical values can stand only once. Like-named read-outs stand apart in the source and are kept apart here.
# Experiments:
# [1] = tested on: slow skeletal muscle (Soleus) myofibrils; assay: Myofibrillar ATPase, slow skeletal myofibrils; format: biochemical, marmoset (Callithrix jacchus)
# Description: (§1) Next we tested the myosin isoform specificity of F10 by measuring its effect on the ATPase activity of myofibrils isolated from ventricle, and fast (Tiberialis Anterior) and slow skeletal muscles (Soleus) isolated from marmoset (Callithrix jacchus).
# (§2) Demembranated myofibrils were freshly prepared from bovine ventricle on the day of the experiments as previously described[25],[63]. Marmoset ventricular and skeletal muscle tissue was kindly provided by the Biological Service Unit of King’s College London. Steady-state myofibrillar ATPase activity was measured using an identical protocol as described above but in myofibril assay buffer (composition in mmol L^−1: 20 MOPS pH 7, 50 KCl, 0.1 CaCl2, 1 DTT) with a final bovine CMF concentration of 1 mg mL^−1.
# [2] = tested on: phospholipid biosynthesis in mammalian cells; parameters: method as in PubChem; details: ref PubChem; cited from earlier work
# [3] = tested on: fast skeletal muscle (Tiberialis Anterior) myofibrils; assay: Myofibrillar ATPase, fast skeletal myofibrils; format: biochemical, marmoset (Callithrix jacchus)
# Description: as §1, §2
# [4] = biological target: bovine β-cardiac myosin S1 / myosin S2 tail domain (Bos taurus, UniProt Q9BE39)
# Description: In a subset of trabeculae, we replaced the endogenous myosin regulatory light chain (RLC) with a recombinant cardiac RLC crosslinked to a bifunctional sulforhodamine (BSR) along its E-helix (BSR-cRLC-E)[39],[40]. This allowed us to determine the orientation of the RLC-region of myosin in demembranated trabeculae using polarized fluorescence (Fig. 4b; Supplementary Table 2).
# Microscale thermophoresis (MST) experiments were performed as described previously. Briefly, MST experiments were performed on a Monolith NT.115 instrument (NanoTemper) in interaction buffer containing 20 mmol L^−1 Mops, pH 7, 1 mmol L^−1 MgCl2, 50 mmol L^−1 KCl, 1 mmol L^−1 DTT, and 0.05% (v/v) Tween-20. […] All proteins were either gel-filtered into and/or extensively dialyzed against interaction buffer. Titration experiments were performed with a fixed concentration of 100 nmol L^−1 of Alexa647-labeled proteins in premium capillaries.
# [5] = tested on: orientation of the RLC-region of myosin in demembranated trabeculae; assay: Polarized fluorescence of BSR-cRLC-E in demembranated trabeculae (order parameter <P2>); parameters: species or system rat (Rattus norvegicus)
# Description: In a subset of trabeculae, we replaced the endogenous myosin regulatory light chain (RLC) with a recombinant cardiac RLC crosslinked to a bifunctional sulforhodamine (BSR) along its E-helix (BSR-cRLC-E)[39],[40]. This allowed us to determine the orientation of the RLC-region of myosin in demembranated trabeculae using polarized fluorescence (Fig. 4b; Supplementary Table 2). […] In contrast, F10 increased <P2> for the E-helix probe, under both relaxing and activating conditions, and abolished the orientation change in the myosin heads associated with Ca^2+-activation of the myofilaments. […] As a step towards elucidating the molecular mechanism behind F10’s stabilizing effect on the myosin head OFF conformation, we measured the affinity of isolated bovine β-cardiac myosin S1 in the presence of various nucleotides and F10 for the myosin S2 tail domain using Microscale Thermophoresis (Fig. S4).
# BSR-cRLCs were exchanged into demembranated trabeculae by extraction in CDTA-rigor solution (composition in mmol L^−1: 5 CDTA, 50 KCl, 40 Tris-HCl pH 8.4, 0.1% (v/v) Triton X-100) for 30 min followed by reconstitution with 40 μmol L^−1 BSR-cRLC in relaxing solution (composition in mmol L^−1: 25 Imidazole, 15 Na2Creatine phosphate (Na2CrP), 78.4 KPropionate (KPr), 5.65 Na2ATP, 6.8 MgCl2, 10 K2EGTA, 1 DTT, pH 7.1) for 1 h, replacing ~50% of the endogenous cRLC[40],[64].
# Composition of experimental solutions and activation protocols were identical to those described previously for fluorescence polarization experiments. Fluorescence emission from BSR-cRLCs in trabeculae were collected by a 0.25 N.A. objective using an excitation light beam in line with the emission path. […] The fluorescence emission was separated into parallel and perpendicular components by polarizing beam splitters, and its intensity measured by two photomultipliers, allowing determination of the order parameter <P2> that describes the dipole orientations in the trabeculae. […]
# Chain of bovine β-cardiac myosin S1 / myosin S2 tail domain (Q9BE39 85-778 limits assumed): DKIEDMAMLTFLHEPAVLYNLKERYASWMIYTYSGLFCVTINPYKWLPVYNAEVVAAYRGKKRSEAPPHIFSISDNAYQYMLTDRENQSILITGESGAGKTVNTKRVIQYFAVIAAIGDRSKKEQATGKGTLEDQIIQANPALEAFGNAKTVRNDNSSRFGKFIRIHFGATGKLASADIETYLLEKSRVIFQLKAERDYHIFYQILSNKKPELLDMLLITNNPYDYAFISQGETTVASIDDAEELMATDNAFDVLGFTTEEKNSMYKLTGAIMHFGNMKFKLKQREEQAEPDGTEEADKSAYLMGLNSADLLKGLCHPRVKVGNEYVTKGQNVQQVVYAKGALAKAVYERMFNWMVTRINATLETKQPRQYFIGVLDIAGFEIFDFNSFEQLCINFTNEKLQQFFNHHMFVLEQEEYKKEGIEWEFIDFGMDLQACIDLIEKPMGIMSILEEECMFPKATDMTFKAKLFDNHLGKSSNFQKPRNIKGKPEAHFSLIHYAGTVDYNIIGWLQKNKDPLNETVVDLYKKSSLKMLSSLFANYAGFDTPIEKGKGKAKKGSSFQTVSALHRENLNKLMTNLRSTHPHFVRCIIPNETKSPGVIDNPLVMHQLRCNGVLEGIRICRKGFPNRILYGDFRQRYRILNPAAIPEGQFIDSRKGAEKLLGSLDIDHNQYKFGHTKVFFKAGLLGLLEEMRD
# Chain of bovine β-cardiac myosin S1 / myosin S2 tail domain (P85100 whole entry partner, the tested form may be a part): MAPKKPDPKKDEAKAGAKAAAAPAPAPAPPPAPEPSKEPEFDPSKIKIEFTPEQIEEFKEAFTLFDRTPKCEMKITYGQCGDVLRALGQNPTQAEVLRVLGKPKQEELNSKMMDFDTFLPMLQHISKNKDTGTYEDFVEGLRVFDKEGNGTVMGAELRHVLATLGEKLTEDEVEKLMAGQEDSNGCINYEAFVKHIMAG
compound,measurement,setting,value
CCc1cc2c(=O)n(NC(=S)NC(C)C)cnc2s1 [F10],decrease in ATPase activity of soleus myofibrils,[1]; 20 μmol L^−1 F10,about 10%
same,"Myofibrilar ATPase [%], change vs control","[1]; Soleus (slow), 20 μmol L^-1 F10",-10%
same,"Myofibrilar ATPase, individual experiments","[1]; Soleus, 20 μmol L^-1 F10",91.7277% and 110.835% and 94.2329% and 93.0845% and 93.8276% and 88.6937% and 89.9096% and 92.8819% and 84.7083% and 101.326% and 81.2354% and 85.1848% and 83.8911% and 92.3346% and 84.6401% and 69.9319% and 80.963% and 77.0136% and 90.9224% and 106.296% and 102.343% and 99.9268% and 89.6779% and 109.737%
same,biological activity in primary screen,[2],"without, however, any biological activity"
same,effect on ATPase of myofibrils isolated from fast skeletal muscle,[3]; 20 μmol L^−1 F10,no effect
same,"Myofibrilar ATPase, individual experiments","[3]; Tiberialis Anterior, 20 μmol L^-1 F10",103.058% and 94.7749% and 105.182% and 96.587% and 92.4359% and 90.2726% and 101.147% and 99.8027% and 75.8898% and 104.538% and 92.5792% and 95.4782% and 84.5124% and 86.7812% and 82.9998% and 107.831% and 122.01% and 86.3954% and 97.5199% and 112.738% and 111.197% and 105.032% and 96.8457%
same,"Myofibrilar ATPase [%], change vs control","[3]; Tiberials Anterior (fast), 20 μmol L^-1 F10",-3%
same,Normalized MST binding S1-S2,"[4]; 1 mmol L-1 ADP.AlF4, S2D 0.0488",0.03566
same,Normalized MST binding S1-S2,"[4]; 1 mmol L-1 ADP.AlF4, S2D 0.0977",0.0163
same,Normalized MST binding S1-S2,"[4]; 1 mmol L-1 ADP.AlF4, S2D 0.3906",0.009201
same,Normalized MST binding S1-S2,"[4]; 1 mmol L-1 ADP.AlF4, S2D 0.7813",0.03149
same,Normalized MST binding S1-S2,"[4]; 1 mmol L-1 ADP.AlF4, S2D 1.5625",0.0885
same,Normalized MST binding S1-S2,"[4]; 1 mmol L-1 ADP.AlF4, S2D 3.125",0.1616
same,Normalized MST binding S1-S2,"[4]; 1 mmol L-1 ADP.AlF4, S2D 6.25",0.3206
same,Normalized MST binding S1-S2,"[4]; 1 mmol L-1 ADP.AlF4, S2D 12.5",0.4612
same,Normalized MST binding S1-S2,"[4]; 1 mmol L-1 ADP.AlF4, S2D 25",0.6248
same,Normalized MST binding S1-S2,"[4]; 1 mmol L-1 ADP.AlF4, S2D 50",0.7947
same,Normalized MST binding S1-S2,"[4]; 1 mmol L-1 ADP.AlF4, S2D 100",0.8606
same,Normalized MST binding S1-S2,"[4]; 1 mmol L-1 ADP, S2D 0.0488",0.01363
same,Normalized MST binding S1-S2,"[4]; 1 mmol L-1 ADP, S2D 0.0977",0.01186
same,Normalized MST binding S1-S2,"[4]; 1 mmol L-1 ADP, S2D 0.1953",0.01368
same,Normalized MST binding S1-S2,"[4]; 1 mmol L-1 ADP, S2D 0.3906",0.0116
same,Normalized MST binding S1-S2,"[4]; 1 mmol L-1 ADP, S2D 0.7813",0.04036
same,Normalized MST binding S1-S2,"[4]; 1 mmol L-1 ADP, S2D 1.5625",0.07905
same,Normalized MST binding S1-S2,"[4]; 1 mmol L-1 ADP, S2D 3.125",0.1319
same,Normalized MST binding S1-S2,"[4]; 1 mmol L-1 ADP, S2D 6.25",0.2708
same,Normalized MST binding S1-S2,"[4]; 1 mmol L-1 ADP, S2D 12.5",0.4119
same,Normalized MST binding S1-S2,"[4]; 1 mmol L-1 ADP, S2D 25",0.5835
same,Normalized MST binding S1-S2,"[4]; 1 mmol L-1 ADP, S2D 50",0.7506
same,Normalized MST binding S1-S2,"[4]; 1 mmol L-1 ADP, S2D 100",0.8408
same,Normalized MST binding S1-S2,"[4]; 1 mmol L-1 ATP, S2D 0.0488",0.07487
same,Normalized MST binding S1-S2,"[4]; 1 mmol L-1 ATP, S2D 0.0977",0.0005344
same,Normalized MST binding S1-S2,"[4]; 1 mmol L-1 ATP, S2D 0.1953",-0.01266
same,Normalized MST binding S1-S2,"[4]; 1 mmol L-1 ATP, S2D 0.3906",0.02682
same,Normalized MST binding S1-S2,"[4]; 1 mmol L-1 ATP, S2D 0.7813",0.008303
same,Normalized MST binding S1-S2,"[4]; 1 mmol L-1 ATP, S2D 1.5625",0.06777
same,Normalized MST binding S1-S2,"[4]; 1 mmol L-1 ATP, S2D 3.125",0.1347
same,Normalized MST binding S1-S2,"[4]; 1 mmol L-1 ATP, S2D 6.25",0.2613
same,Normalized MST binding S1-S2,"[4]; 1 mmol L-1 ATP, S2D 12.5",0.4278
same,Normalized MST binding S1-S2,"[4]; 1 mmol L-1 ATP, S2D 25",0.5839
same,Normalized MST binding S1-S2,"[4]; 1 mmol L-1 ATP, S2D 50",0.7582
same,Normalized MST binding S1-S2,"[4]; 1 mmol L-1 ATP, S2D 100",0.8343
same,order parameter <P2>max,"[5]; full Ca^2+ activation pCa 4.5, 20 μmol L^−1 F10, control 0.078 ± 0.008",0.160 and 0.235 and 0.225
same,<P2>max,[5]; individual replicates,0.160 and 0.235 and 0.225
same,<P2>min,[5]; individual replicates,0.178 and 0.208 and 0.194
